Measurements reported in ChEMBL document CHEMBL5537143, “Synthesis and antimicrobial properties of guanidine-functionalized labdane type diterpenoids” (Eur J Med Chem, 2024).
Values after ≈ are worked out from the molar mass of the structure shown.

Assays:
Klebsiella pneumoniae [1] = test: Antimicrobial activity against Carbapenem-resistant Klebsiella pneumoniae ATCC BAA1705 assessed as inhibition of microbial growth incubated for 24 hrs by broth-microdilution assay; format: functional
[2] = Acute toxicity in zebrafish embryo assessed as mortality rate at 0.7 microg/ml preincubated with compound for 24 hrs and measured after 96 hrs post fertilization; design: species or system Danio rerio; details: in vivo, at 0.7 µg/mL
[3] = Acute toxicity in zebrafish embryo assessed as mortality rate at 8 microg/ml preincubated with compound for 24 hrs and measured after 48 to 72 hrs post fertilization; design: species or system Danio rerio; details: in vivo, at 8 µg/mL
Candida albicans [4] = test: Synergistic antifungal activity against Candida albicans ATCC 10231 assessed as reduction in fungal growth incubated for 48 hrs in presence of Voriconazole by CLSI based analysis; format: functional; details: read-out: MIC100
Staphylococcus aureus [5] = test: Synergistic antimicrobial activity against methicillin resistant Staphylococcus aureus 43300 assessed as inhibition of microbial growth incubated for 24 hrs in presence of Oxacillin by checkerboard assay; format: functional; details: read-out: MIC100
[6] = tested on: Staphylococcus epidermidis; test: Antimicrobial activity against Staphylococcus epidermidis ATCC 35984 assessed as inhibition of microbial growth incubated for 24 hrs by broth-microdilution assay; format: functional; details: Staphylococcus epidermidis, ATCC 35984, read-out: MIC
[7] = Acute toxicity in zebrafish embryo assessed as mortality rate at 2 microg/ml preincubated with compound for 24 hrs and measured after 96 hrs post fertilization; design: species or system Danio rerio; details: in vivo, at 2 µg/mL
[8] = Acute toxicity in zebrafish embryo assessed as mortality rate at 4 microg/ml preincubated with compound for 24 hrs and measured after 24 hrs post fertilization; design: species or system Danio rerio; details: in vivo, at 4 µg/mL
[9] = Acute toxicity in zebrafish embryo assessed as mortality rate at 32 microg/ml preincubated with compound for 24 hrs and measured after 24 hrs post fertilization; design: species or system Danio rerio; details: in vivo, at 32 µg/mL
[10] = Acute toxicity in zebrafish embryo assessed as mortality rate at 4 microg/ml preincubated with compound for 24 hrs and measured after 96 hrs post fertilization; design: species or system Danio rerio; details: in vivo, at 4 µg/mL
Staphylococcus aureus [11] = test: Synergistic antimicrobial activity against methicillin resistant Staphylococcus aureus 43300 assessed as fractional inhibitory concentration index incubated for 24 hrs in presence of Oxacillin by checkerboard assay; format: functional
[12] = Acute toxicity in zebrafish embryo assessed as mortality rate at 8 microg/ml preincubated with compound for 24 hrs and measured after 24 hrs post fertilization; design: species or system Danio rerio; details: in vivo, at 8 µg/mL
Klebsiella pneumoniae [13] = test: Synergistic antimicrobial activity against Klebsiella pneumoniae ATCC BAA1705 assessed as fractional inhibitory concentration index incubated for 24 hrs in presence of Imipenem by checkerboard assay; format: functional
[14] = Acute toxicity in zebrafish embryo preincubated with compound for 24 hrs and measured after 24 hrs post fertilization; design: species or system Danio rerio; details: in vivo
[15] = Acute toxicity in zebrafish embryo assessed as mortality rate at 16 microg/ml preincubated with compound for 24 hrs and measured after 96 hrs post fertilization; design: species or system Danio rerio; details: in vivo, at 16 µg/mL
[16] = Acute toxicity in zebrafish embryo assessed as mortality rate at 8 microg/ml preincubated with compound for 24 hrs and measured after 96 hrs post fertilization; design: species or system Danio rerio; details: in vivo, at 8 µg/mL
Pseudomonas aeruginosa [17] = test: Antimicrobial activity against Pseudomonas aeruginosa ATCC 27853 assessed as inhibition of microbial growth incubated for 24 hrs by broth-microdilution assay; format: functional
Candida albicans [18] = test: Antifungal activity against Candida albicans ATCC 90028 assessed as reduction in fungal growth incubated for 48 hrs by CLSI based analysis; format: functional; details: read-out: MIC
[19] = Acute toxicity in zebrafish embryo assessed as mortality rate at 4 microg/ml preincubated with compound for 24 hrs and measured after 48 to 72 hrs post fertilization; design: species or system Danio rerio; details: in vivo, at 4 µg/mL
[20] = Acute toxicity in zebrafish embryo preincubated with compound for 24 hrs and measured after 96 hrs post fertilization; design: species or system Danio rerio; details: in vivo
Klebsiella pneumoniae [21] = test: Synergistic antimicrobial activity against Klebsiella pneumoniae ATCC BAA1705 assessed as Imipenem MIC incubated for 24 hrs by checkerboard assay; format: functional; details: read-out: MIC100
[22] = Acute toxicity in zebrafish embryo assessed as mortality rate at 16 microg/ml preincubated with compound for 24 hrs and measured after 24 hrs post fertilization; design: species or system Danio rerio; details: in vivo, at 16 µg/mL
[23] = tested on: Staphylococcus epidermidis; test: Antimicrobial activity against Staphylococcus epidermidis ATCC 12228 assessed as inhibition of microbial growth incubated for 24 hrs by broth-microdilution assay; format: functional; details: Staphylococcus epidermidis, ATCC 12228, read-out: MIC
Pseudomonas aeruginosa [24] = test: Antimicrobial activity against Pseudomonas aeruginosa PAO1 assessed as inhibition of microbial growth incubated for 24 hrs by broth-microdilution assay; format: functional
Candida albicans [25] = test: Synergistic antifungal activity against Candida albicans ATCC 10231 assessed as Voriconazole MIC incubated for 48 hrs by CLSI based analysis; format: functional; details: read-out: MIC100
Klebsiella pneumoniae [26] = test: Antimicrobial activity against Klebsiella pneumoniae ATCC 13883 assessed as inhibition of microbial growth incubated for 24 hrs by broth-microdilution assay; format: functional; details: read-out: MIC
Staphylococcus aureus [27] = test: Antimicrobial activity against methicillin resistant Staphylococcus aureus 43300 assessed as inhibition of microbial growth incubated for 24 hrs by broth-microdilution assay; format: functional; details: read-out: MIC
Staphylococcus aureus [28] = test: Antimicrobial activity against Staphylococcus aureus ATCC 43300 assessed as inhibition of microbial growth incubated for 24 hrs by broth-microdilution assay; format: functional; details: Staphylococcus aureus, ATCC 43300, read-out: MIC100
Candida albicans [29] = test: Antifungal activity against Candida albicans ATCC 10231 assessed as reduction in fungal growth incubated for 48 hrs by CLSI based analysis; format: functional; details: read-out: MIC100
Staphylococcus aureus [30] = test: Antimicrobial activity against Staphylococcus aureus ATCC 29213 assessed as inhibition of microbial growth incubated for 24 hrs by broth-microdilution assay; format: functional; details: Staphylococcus aureus, ATCC 29213, read-out: MIC100
[31] = Acute toxicity in zebrafish embryo preincubated with compound for 24 hrs and measured after 48 to 72 hrs post fertilization; design: species or system Danio rerio; details: in vivo
Staphylococcus aureus [32] = test: Antimicrobial activity against Staphylococcus aureus 29213 assessed as inhibition of microbial growth incubated for 24 hrs by broth-microdilution assay; format: functional
Klebsiella pneumoniae [33] = test: Antimicrobial activity against Klebsiella pneumoniae ATCC BAA1705 assessed as inhibition of microbial growth incubated for 24 hrs by broth-microdilution assay; format: functional; details: read-out: MIC
[34] = Acute toxicity in zebrafish embryo assessed as mortality rate at 32 microg/ml preincubated with compound for 24 hrs and measured after 96 hrs post fertilization; design: species or system Danio rerio; details: in vivo, at 32 µg/mL
Klebsiella pneumoniae [35] = test: Antimicrobial activity against Carbapenem -resistant Klebsiella pneumoniae ATCC 13883 assessed as inhibition of microbial growth incubated for 24 hrs by broth-microdilution assay; format: functional
Staphylococcus aureus [36] = test: Synergistic antimicrobial activity against methicillin resistant Staphylococcus aureus 43300 assessed as Oxacillin MIC incubated for 24 hrs by checkerboard assay; format: functional; details: read-out: MIC100
Klebsiella pneumoniae [37] = test: Synergistic antimicrobial activity against Klebsiella pneumoniae ATCC BAA1705 assessed as inhibition of microbial growth incubated for 24 hrs in presence of Imipenem by checkerboard assay; format: functional; details: read-out: MIC100
Candida albicans [38] = test: Synergistic antifungal activity against Candida albicans ATCC 10231 assessed as fractional inhibitory concentration index incubated for 48 hrs in presence of Voriconazole by CLSI based analysis; format: functional
Pseudomonas aeruginosa [39] = test: Antimicrobial activity against Pseudomonas aeruginosa PAO1 assessed as inhibition of microbial growth at 128 microg/ml incubated for 24 hrs by broth-microdilution assay relative to control; format: functional
[40] = Acute toxicity in zebrafish embryo assessed as mortality rate at 16 microg/ml preincubated with compound for 24 hrs and measured after 48 to 72 hrs post fertilization; design: species or system Danio rerio; details: in vivo, at 16 µg/mL
Pseudomonas aeruginosa [41] = test: Antimicrobial activity against Pseudomonas aeruginosa 27853 assessed as inhibition of microbial growth at 128 microg/ml incubated for 24 hrs by broth-microdilution assay relative to control; format: functional
[42] = Acute toxicity in zebrafish embryo assessed as mortality rate at 0.7 microg/ml preincubated with compound for 24 hrs and measured after 48 to 72 hrs post fertilization; design: species or system Danio rerio; details: in vivo, at 0.7 µg/mL
[43] = Acute toxicity in zebrafish embryo assessed as mortality rate at 32 microg/ml preincubated with compound for 24 hrs and measured after 48 to 72 hrs post fertilization; design: species or system Danio rerio; details: in vivo, at 32 µg/mL
[44] = Acute toxicity in zebrafish embryo preincubated with compound for 24 hrs and measured after 48 to 96 hrs post fertilization; design: species or system Danio rerio; details: in vivo
[45] = Acute toxicity in zebrafish embryo assessed as mortality rate at 2 microg/ml preincubated with compound for 24 hrs and measured after 48 to 72 hrs post fertilization; design: species or system Danio rerio; details: in vivo, at 2 µg/mL

CC1(C)CCC[C@]2(C)[C@H]3CC[C@](C)(CC(=O)NC(=N)N)O[C@]3(C)CC[C@@H]12
MIC (Klebsiella pneumoniae [1]): 32 µg/mL
mortality at 96 h, 0.7 microg/ml [2]: 0%
mortality at 24 h, 8 microg/ml [3]: 35%
MIC (Candida albicans [4]): 4 µg/mL
MIC (Staphylococcus aureus [5]): 4 µg/mL
MIC [6]: 4 µg/mL
mortality at 96 h, 2 microg/ml [7]: 0%
mortality at 24 h, 4 microg/ml [8]: 0%
mortality at 24 h, 32 microg/ml [9]: 95%
mortality at 96 h, 4 microg/ml [10]: 5%
fractional inhibitory concentration index (FICI) (Staphylococcus aureus [11]): 0.512
mortality at 24 h, 8 microg/ml [12]: 15%
fractional inhibitory concentration index (FICI) (Klebsiella pneumoniae [13]): 0.6
LC50 at 24 h [14]: 14 µg/mL (≈ 38.5 µM)
mortality at 96 h, 16 microg/ml [15]: 100%
mortality at 96 h, 8 microg/ml [16]: 95%
MIC70 (Pseudomonas aeruginosa [17]): 128 µg/mL
MIC (Candida albicans [18]): 16 µg/mL (≈ 44 µM)
mortality at 4 microg/ml [19]: 0%
LC50 at 96 h [20]: 6 µg/mL (≈ 16.5 µM)
MIC (Klebsiella pneumoniae [21]): 2 µg/mL
mortality at 24 h, 16 microg/ml [22]: 75%
MIC [23]: 4 µg/mL
MIC75 (Pseudomonas aeruginosa [24]): 128 µg/mL
MIC (Candida albicans [25]): 0.125 µg/mL
MIC (Klebsiella pneumoniae [26]): 16 µg/mL
MIC (Staphylococcus aureus [27]): 4 µg/mL
MIC (Staphylococcus aureus [28]): 8 µg/mL
MIC (Candida albicans [29]): 16 µg/mL (≈ 44 µM)
MIC (Staphylococcus aureus [30]): 8 µg/mL
LC50 at 24 h [31]: 8.1 µg/mL (≈ 22.3 µM)
MIC (Staphylococcus aureus [32]): 4 µg/mL
MIC (Klebsiella pneumoniae [33]): 32 µg/mL
mortality at 96 h, 32 microg/ml [34]: 100%
MIC (Klebsiella pneumoniae [35]): 32 µg/mL
MIC (Staphylococcus aureus [36]): 0.125 µg/mL
MIC (Klebsiella pneumoniae [37]): 16 µg/mL
fractional inhibitory concentration index (FICI) (Candida albicans [38]): 0.254
inhibition at 128 µg/mL (Pseudomonas aeruginosa [39]): 75%
mortality at 16 microg/ml [40]: 100%
inhibition at 128 µg/mL (Pseudomonas aeruginosa [41]): 70%

CC1(C)CCC[C@]2(C)[C@H]3CC[C@@](C)(CC(=O)NC(=N)N)O[C@]3(C)CC[C@@H]12
MIC (Klebsiella pneumoniae [1]): 32 µg/mL
mortality at 24 h, 8 microg/ml [3]: 0%
MIC (Candida albicans [4]): 2 µg/mL
MIC (Staphylococcus aureus [5]): 2 µg/mL
MIC [6]: 4 µg/mL
mortality at 24 h, 32 microg/ml [9]: 5%
mortality at 24 h, 0.7 microg/ml [42]: 5%
fractional inhibitory concentration index (FICI) (Staphylococcus aureus [11]): 0.55
fractional inhibitory concentration index (FICI) (Klebsiella pneumoniae [13]): 0.6
mortality at 24 h, 32 microg/ml [43]: 100%
LC50 at 24 h [14]: 93.4 µg/mL (≈ 257 µM)
MIC50 (Pseudomonas aeruginosa [17]; Pseudomonas aeruginosa, ATCC 27853): 128 µg/mL
LC50 [44]: 11.5 µg/mL (≈ 31.6 µM)
MIC (Candida albicans [18]): 16 µg/mL (≈ 44 µM)
mortality at 4 microg/ml [19]: 0%
MIC (Klebsiella pneumoniae [21]): 2 µg/mL
mortality at 24 h, 16 microg/ml [22]: 10%
MIC [23]: 4 µg/mL
MIC65 (Pseudomonas aeruginosa [24]): 128 µg/mL
MIC (Candida albicans [25]): 0.125 µg/mL
MIC (Klebsiella pneumoniae [26]): 16 µg/mL
MIC (Staphylococcus aureus [27]): 4 µg/mL
MIC (Staphylococcus aureus [28]): 8 µg/mL
MIC (Candida albicans [29]): 16 µg/mL (≈ 44 µM)
MIC (Staphylococcus aureus [30]): 8 µg/mL
mortality at 2 microg/ml [45]: 0%
MIC (Staphylococcus aureus [32]): 4 µg/mL
MIC (Klebsiella pneumoniae [33]): 32 µg/mL
MIC (Klebsiella pneumoniae [35]): 32 µg/mL
MIC (Staphylococcus aureus [36]): 0.5 µg/mL
MIC (Klebsiella pneumoniae [37]): 16 µg/mL
fractional inhibitory concentration index (FICI) (Candida albicans [38]): 0.129
inhibition at 128 µg/mL (Pseudomonas aeruginosa [39]): 65%
mortality at 16 microg/ml [40]: 100%
inhibition at 128 µg/mL (Pseudomonas aeruginosa [41]): 50%
